Data: patent US20220062291A1, “COMPOSITIONS AND METHODS OF TREATING CANCERS BY ADMINISTERING A PHENOTHIAZINE-RELATED DRUG THAT ACTIVATES PROTEIN PHOSPHATASE 2A (PP2A) WITH REDUCED INHIBITORY ACTIVITY TARGETED TO THE DOPAMINE D2 RECEPTOR AND ACCOMPANYING TOXICITY” (DANA-FARBER CANCER INSTITUTE, INC., priority 2018, published 2022)
“Also recorded” adds a separate entry of the source.

Columns and labels:
[1] = target: T1, PP2A (purified PPP2R1A, PPP2CA and PPP2R5E subunits) (Homo sapiens, UniProt P30153+P67775+Q16537); test: PP2A Immunoprecipitation Phosphatase Assay with purified subunits; format: biochemical
T1 construct: made in house; host or cells: Hi5 insect cells (baculovirus, pAC8 vectors; virus produced in Sf9)
Experimental: The data is presented as mean±s.d. (n=3, biological replicates). *P<0.05 by student's t-test.
Phosphatase activity of PP2A was measured using the PP2A Immunoprecipitation Phosphatase Assay Kit (Merck Millipore®) (FIG. 21A-FIG. 21B). […] The proteins were subsequently incubated with protein A agarose slurry and 4 μg of anti-PPP2CA antibody (Merck Millipore®, #05-421, clone 1D6) at 4° C. with constant rocking for one hour. Agarose-bound immune complexes were collected, then washed with 700 μl TBS (3 times) and 500 μl Ser/Thr buffer (final wash), before resuspending them in 20 μl Ser/Thr buffer. A phosphopeptide (amino acid sequence: K-R-pT-I-R-R) was added as a substrate for PPP2CA, and samples were incubated at 30° C. in a shaking incubator for 10 minutes. Supernatants (25 μl) were then transferred onto 96-well plate, and released phosphate was measured by adding 100 μl malachite green phosphate detection solution. Absorbance was read by SpectraMax® M5 Multi-Mode Microplate Reader (Molecular Devices LLC) at 650 nm. Phosphate concentrations were calculated from a standard curve generated from serial dilutions of standard phosphate solution (0-2,000 pmol).

[2] = test system: α and β tubulins in KOPT-K1 cell lysates; test: Cellular thermal shift assay (CETSA), tubulins; format: binding, human
Experimental: Data are presented as means±s.d. (n=3, biological replicates). The quantitation of levels α and β tubulins detected by specific antibodies was determined using western blotting (FIG. 19E). Alpha (α) and tubulin levels were quantified during CETSA by Image J software of KOPT-K1 cell lysates treated or untreated with iPAP1 at various temperatures for 3 minutes. […] The CETSA curves for KOPT-K1 cell lysates with and without the addition of iPAP1 after incubation for 3 minutes are shown in FIG. 19F and FIG. 19G. […] Data are presented as means±s.d. (n=3, biological replicates). The quantitation of levels α and β tubulins detected by specific antibodies using western blotting (FIG. 19H). α and β tubulin levels were quantified during CETSA by Image J software of KOPT-K1 cell lysates treated or untreated with iPAP1 at various temperature for 3 minutes.

[3] = target: T2, human dopamine receptor D2 (DRD2) (Homo sapiens, UniProt P14416); test: Dopamine receptor D2 inhibition assay (SRE-luciferase reporter in HEK293T cells); format: cell-based; details: for inhibitory activity on DRD2: 0.5, 1, 2 and 4 μM for three hours with 2 μM dopamine
T2 construct: expressed in transfected cells; host or cells: HEK293T (pcDNA3 vectors)
Text: (§1) The human dopamine receptor D2 (DRD2) and modified murine Gq5i cDNAs were inserted into pcDNA3 expression vectors. After verifying the PCR products by DNA sequencing, DRD2, Gq5i and the PathDetect pSRE-Luc Cis-Reporter Plasmid (#219080, Agilent Technologies) were transfected to HEK293T cells. As previously reported, Gq5i enables Gi/o-coupled receptor activity to be detected using a serum response element (SRE)-luciferase reporter gene (See, Conklin et al., Nature 363(6426):274-6 (1993); Al-Fulaij et al., J. Pharmacol. Exp. Ther. 321(1):298-307 (2007)). These cells were starved in FCS-free DMEM medium for six hours before incubating them with 2 μM dopamine hydrochloride (Sigma Aldrich) together with each of the compound at 0, 0.5, 1, 2 and 4 μM for three hours. The reporter activity was measured using Pierce™ Firefly Luciferase Glow Assay Kit (Thermo Fisher Scientific).
For IC50 calculation, KOPT-K1 cells were treated with each of the compounds at various concentrations for 72 hours, followed by the determination of viable cell numbers with PrestoBlue® cell viability reagent. For the PP2A phosphatase activity assay, KOPT-K1 cells were treated with each of the compounds at 10 μM for 3 hours before phosphatase activity was measured. Dopamine D2 receptor activity was monitored in HEK293T cells coexpressing the dopamine D2 receptor, modified G protein and SRE luciferase reporter. Cells were treated with each of the compound at 10 μM for 3 hours, then lysed for the luciferase reporter assay.
as §1, with “D2” for “D2 (DRD2)”, “363(6426):274-276” for “363(6426):274-6”, “0.5” for “0, 0.5, 1, 2 and 4”

[4] = test system: MYBL2 Ser241 in KOPT-K1 cells; test: Phosphoproteomics analysis; format: cell-based, human; details: 3 hours
Experimental: To evaluate phosphopeptides in KOPT-K1 cells by phosphoproteomics analysis, cells were treated with PPZ at 10 μM or iPAP1 at 1 μM for 3 hours.

[5] = test system: T-ALL cells isolated from Tg(rag2:Myc; rag2:EGFP) zebrafish; test: Zebrafish embryos transplanted with T-ALL cells, GFP-positive leukemic area; format: in vivo
Text: (n=10) N.S.; not significant, **P<0.01 and ****P<0.0001 by two-tailed Welch's t-test.

[6] = test system: KOPT-K1 cells; test: Microtubule and chromatin staining of cytospins; format: cell-based, human; details: 24 hours
[7] = test system: KOPT-K1 cells; test: Survival of NSG mice xenotransplanted with KOPT-K1 cells; format: in vivo, NSG (NOD/Scid/IL2Rγnull) mice; details: 2.5 mg/kg/day, oral, from day 10
Text: At day one, 1×10^6 KOPT-K1 cells were intravenously injected into each mouse via its tail veins.

[8] = target: T3, PP2A subunits in KOPT-K1 cell lysates (Homo sapiens, UniProt P30153+P67775+Q16537); test: Cellular thermal shift assay (CETSA), PP2A subunits; format: binding; details: PPZ at 10 μM, one hour
T3 construct: are endogenously expressed by KOPTK1 cells; endogenous in cells; host or cells: KOPT-K1 T-ALL cells / lysates
Text: The cell lysates were then ultra-centrifuged to precipitate the aggregated pool of the protein, followed by quantification of the remaining soluble protein fraction by immunoblotting with antibodies specific to each of the PP2A subunits.
A similar experiment was set up to examine target engagement specificity of iPAP1 to PP2A subunits in KOPT-K1 cells (FIG. 18G-FIG. 18L). […] A western blot of the KOPT-K1 cell lysates is illustrated in FIG. 19B.

T1 sequence (P30153 whole entry): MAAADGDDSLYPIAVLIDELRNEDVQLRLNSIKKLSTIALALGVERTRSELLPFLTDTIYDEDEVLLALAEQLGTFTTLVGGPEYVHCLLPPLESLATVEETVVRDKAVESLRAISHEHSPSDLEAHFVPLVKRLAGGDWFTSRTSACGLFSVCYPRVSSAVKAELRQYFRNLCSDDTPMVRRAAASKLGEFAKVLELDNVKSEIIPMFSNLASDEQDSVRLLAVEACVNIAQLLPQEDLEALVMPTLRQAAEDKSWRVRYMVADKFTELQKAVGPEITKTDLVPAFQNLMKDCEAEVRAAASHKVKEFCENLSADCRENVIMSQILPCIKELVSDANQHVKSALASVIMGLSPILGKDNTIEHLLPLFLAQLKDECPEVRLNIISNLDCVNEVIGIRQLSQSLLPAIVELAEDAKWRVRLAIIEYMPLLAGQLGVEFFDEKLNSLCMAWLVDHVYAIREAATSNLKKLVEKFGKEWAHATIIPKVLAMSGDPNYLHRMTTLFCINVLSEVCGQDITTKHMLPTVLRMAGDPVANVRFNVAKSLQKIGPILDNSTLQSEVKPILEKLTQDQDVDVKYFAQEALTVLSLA
T1 sequence (P67775 whole entry): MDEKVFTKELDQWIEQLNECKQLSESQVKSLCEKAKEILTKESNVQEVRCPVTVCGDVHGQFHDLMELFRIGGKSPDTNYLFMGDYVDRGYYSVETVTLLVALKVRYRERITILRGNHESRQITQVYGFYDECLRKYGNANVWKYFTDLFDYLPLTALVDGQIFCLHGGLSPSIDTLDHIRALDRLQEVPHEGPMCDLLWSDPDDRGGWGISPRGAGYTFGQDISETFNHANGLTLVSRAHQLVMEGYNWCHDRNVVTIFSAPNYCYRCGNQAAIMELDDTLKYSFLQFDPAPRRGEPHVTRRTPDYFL
T1 sequence (Q16537 whole entry): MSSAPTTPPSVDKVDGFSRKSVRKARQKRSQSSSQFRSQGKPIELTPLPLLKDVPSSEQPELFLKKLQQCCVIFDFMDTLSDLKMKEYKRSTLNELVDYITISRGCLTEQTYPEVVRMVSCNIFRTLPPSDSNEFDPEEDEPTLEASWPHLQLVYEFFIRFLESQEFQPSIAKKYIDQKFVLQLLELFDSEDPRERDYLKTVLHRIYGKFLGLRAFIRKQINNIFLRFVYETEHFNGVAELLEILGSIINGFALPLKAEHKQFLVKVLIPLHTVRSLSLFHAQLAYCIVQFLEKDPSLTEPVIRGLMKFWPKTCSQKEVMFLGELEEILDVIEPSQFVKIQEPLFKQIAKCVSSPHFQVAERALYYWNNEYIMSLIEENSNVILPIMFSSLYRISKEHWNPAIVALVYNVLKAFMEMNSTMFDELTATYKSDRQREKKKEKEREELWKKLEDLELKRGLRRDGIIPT
T2 sequence (P14416 whole entry): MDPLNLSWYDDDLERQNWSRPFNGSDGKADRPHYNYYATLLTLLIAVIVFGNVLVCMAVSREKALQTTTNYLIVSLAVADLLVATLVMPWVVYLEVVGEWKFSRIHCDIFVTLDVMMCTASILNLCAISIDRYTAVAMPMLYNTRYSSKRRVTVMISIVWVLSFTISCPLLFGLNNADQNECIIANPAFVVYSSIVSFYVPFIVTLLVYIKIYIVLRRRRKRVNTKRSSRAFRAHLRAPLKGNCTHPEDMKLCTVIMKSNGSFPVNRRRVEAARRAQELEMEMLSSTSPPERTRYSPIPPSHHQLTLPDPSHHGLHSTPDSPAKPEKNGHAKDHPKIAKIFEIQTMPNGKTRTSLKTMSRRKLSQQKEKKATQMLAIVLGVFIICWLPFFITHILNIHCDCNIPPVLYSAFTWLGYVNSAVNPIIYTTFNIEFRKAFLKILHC
T3 sequence (P30153 whole entry): as the sequence (P30153 whole entry) above
T3 sequence (P67775 whole entry): as the sequence (P67775 whole entry) above
T3 sequence (Q16537 whole entry): as the sequence (Q16537 whole entry) above

Row | Compound | phosphatase activity of PP2A assembled from purified PPP2R1A, PPP2CA and PPP2R5E ([1]; one hour at room temperature) | protection of α or β tubulins from thermal degradation [2] | inhibitory activity on DRD2 [3] | phosphorylation of MYBL2 ([4]; 10 μM) | activity against T-ALL (GFP signal) ([5]; 5 μM, five days) | mitotic and microtubule phenotype ([6]; 10 μM and 20 μM) | overall survival [7] | thermal stabilization of PP2A subunits [8] | PP2A activated at lower molar concentrations than PPZ ([1]; purified subunits) [fold] | equivalent PP2A activation activity at lower concentrations compared to PPZ ([1]; purified subunits 200 ng each, one hour at room temperature) [times] | inhibitory activities on DRD2 ([3]; 0.5 μM for three hours with 2 μM dopamine) | inhibitory activity against DRD2 compared to PPZ ([3]; 10 μM for three hours) [%] | DRD2 inhibitory activity as share of the activity of PPZ ([3]; 0.5 to 4 μM) | less active in inhibiting DRD2 than PPZ ([3]; multiple molar concentrations) | phosphorylation of MYBL2 ([4]; 1 μM) | reduction of the GFP signal more than PPZ ([5]; 2 μM iPAP1 vs 5 μM PPZ, five days) | GFP-positive leukemic area ([5]; serial dosage) | mitotic and microtubule phenotype ([6]; 2 μM and 5 μM)
1 | OCCN1CCN(CCCN2c3ccccc3Sc3ccc(Cl)cc32)CC1 [PPZ, perphenazine, reference compound] | Phosphatase activity increased with increasing concentrations of PPZ | did not protect α or β tubulins from thermal degradation | strong inhibitory activity on DRD2 at 0.5 μM; also recorded: strong inhibitory activity of DRD2 activity at concentrations as low as 0.5 μM | completely dephosphorylated at Ser241 | some activity against T-ALL with reduced GFP signal | prometaphase arrest at the monopolarity stage | did not show any survival advantage over the control | significantly enhanced stabilization of PPP2R1A, PPP2CA and PPP2R5E |  |  |  |  |  |  |  |  |  | 
2 | COc1ccc(C(=O)N2c3ccccc3Sc3ccc(Cl)cc32)cc1 [iPAP1] | the phosphatase activity of PP2A was increased upon iPAP1 treatment | did not protect α or β tubulins from thermal degradation | no inhibitory activity of DRD2 signaling at concentrations up to 4 μM |  |  |  | significantly extended the overall survival period | protection of the PP2A subunits from thermal degradation similar to PPZ | ~10 | ~10 | did not show inhibitory activities on DRD2 | ~1 | less than 1% | more than 100 fold | completely dephosphorylated at Ser241 | at least 5 fold | dose dependent increased T-ALL cell killing | prometaphase arrest at the monopolarity stage
